“And” between values parts separate entries of the source, which are not always exact repeats. Identical values can stand only once.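 96-well plates; 48 h exposure; 5 concentrations. Endpoints by linear interpolation between flanking doses. Not reached: highest tested concentration assigned. Here, GI50 denotes the concentration required for 50% inhibition of growth. The concentration for full growth arrest is given as TGI.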
What was measured:
Experiment in all cases: inhibition of tumour cell growth, NCI panel, 48 h
A549 NSCLC = tested on: A549 NSCLC
ACHN renal = tested on: ACHN renal
COLO 205 colon = tested on: COLO 205 colon
K-562 leukemia = tested on: K-562 leukemia
KM12 colon = tested on: KM12 colon
M14 melanoma = tested on: M14 melanoma
NCI-H522 lung = tested on: NCI-H522 lung
SK-MEL-28 melanoma = tested on: SK-MEL-28 melanoma
SW-620 colon = tested on: SW-620 colon
UACC-257 melanoma = tested on: UACC-257 melanoma

| Compound | TGI (A549 NSCLC) | TGI (ACHN renal) | TGI (COLO 205 colon) | TGI (K-562 leukemia) | TGI (KM12 colon) | TGI (M14 melanoma) [µM] | TGI (NCI-H522 lung) | TGI (SK-MEL-28 melanoma) [µM] | TGI (SW-620 colon) [µM] | TGI (UACC-257 melanoma) [µM] | GI50 (A549 NSCLC) [nM] | GI50 (ACHN renal) [nM] | GI50 (COLO 205 colon) [nM] | GI50 (K-562 leukemia) [nM] | GI50 (KM12 colon) [nM] | GI50 (M14 melanoma) [nM] | GI50 (NCI-H522 lung) [nM] | GI50 (SW-620 colon) [nM] |
| --- | --- | --- | --- | --- | --- | --- | --- | --- | --- | --- | --- | --- | --- | --- | --- | --- | --- | --- |
| CCOC(=O)N1c2ccccc2C(C)=CC(C)C1C (configuration not stated) | > 100 µM | > 100 µM | > 100 µM | > 100 µM | 83.4 µM | 80 | 89.6 µM | > 100 | > 100 | 88.5 | – | – | – | – | – | – | – | – |
| Cc1nc2ccc(NCCN(C)C)c3c(=O)c4ccccc4n1c23 | 6.42 µM | 22.3 µM | 11.8 µM | > 54.8 µM | 13.1 µM | 16.4 | 9.91 µM | 21 | 9.15 | 17.6 | – | – | – | – | – | – | – | – |
| Cc1cccc2c(=O)c3c(O)cc(O)cc3n(C)c12 | > 100 µM | > 100 µM | > 100 µM | > 100 µM | > 100 µM | > 100 | > 100 µM | > 100 | > 100 | > 100 | – | – | – | – | – | – | – | – |
| CO[C@@]12C[C@H](CNC(=O)c3ccc[nH]3)O[C@@H]1NC(=O)N2 | > 100 µM | > 100 µM | > 100 µM | > 100 µM | > 100 µM | > 100 | > 100 µM | > 100 | > 100 | > 100 | – | – | – | – | – | – | – | – |
| O=c1cc(NNc2cccc3ccccc23)[nH]c(=O)[nH]1 | 33.4 µM | 30.3 µM | 31.3 µM | > 100 µM | 29.9 µM | 29.8 | 28.7 µM | 33.3 | 40 | 29.4 | – | – | – | – | – | – | – | – |
| S=C(NCc1ccccn1)N/N=C/c1ccccn1 | 1.46 µM | 1.1 µM | 0.379 µM | < 0.0108 µM | > 100 µM | > 100 | 0.0713 µM | > 100 | > 100 | < 0.01 | – | – | – | – | – | – | – | – |
| CC(=O)OCC1OC(OCCCOP(=O)(OCCC#N)OCC2OC(n3cnc4c(N)ncnc43)C(OC(=O)c3ccccc3)C2OC(=O)c2ccccc2)C(OC(C)=O)C(OC(C)=O)C1OC(C)=O (configuration not stated) | > 100 µM | > 100 µM | > 100 µM | > 100 µM | > 100 µM | > 100 | > 100 µM | > 100 | > 100 | > 100 | – | – | – | – | – | – | – | – |
| CCOC(=O)c1ccc(N(CCOS(C)(=O)=O)CCOS(C)(=O)=O)cc1 | > 100 µM | 63.7 µM | > 100 µM | > 100 µM | > 100 µM | > 100 | 41.1 µM | > 100 | > 100 | > 100 | – | – | – | – | – | – | – | – |
| CCCC(=O)Nc1cc(C(=O)N2C[C@H]3C[C@@]34C2=CC(=O)c2[nH]cc(C)c24)n(COC)c1 | 50 µM and 12.8 µM | 2.5 µM and 0.342 µM | 1.14 µM and 0.261 µM | 50 µM and 18.8 µM | 2.29 µM and 14.7 µM | – | 0.261 µM and 0.117 µM | 1.28 | 82.2 | 0.833 | 1200 | 88.8 | 119 | 92.5 | 282 | 167 | 11.5 | 184 |
| COc1cc2c(oc(=O)c3c4occc4cc(OC)c23)c2cccc(O)c12 | > 100 µM | > 100 µM | > 100 µM | > 100 µM | > 100 µM | > 100 | > 100 µM | > 100 | > 100 | > 100 | – | – | – | – | – | – | – | – |
| CN(C)S(=O)(=O)c1ccc2[nH]c(O)c(C3=Nc4ccccc4C3=O)c2c1 | > 100 µM | 33.7 µM | > 100 µM | > 100 µM | > 100 µM | > 100 | > 100 µM | > 100 | > 100 | > 100 | – | – | – | – | – | – | – | – |
| CCOC(=O)Cc1c(C(=O)OCC)[n+](=O)c2cc(Cl)c(Cl)cc2n1[O-] | 3.72 µM | 3.38 µM | 3.27 µM | 5.65 µM | 2.95 µM | 5.98 | 3.63 µM | 17.4 | 4.08 | 5.51 | – | – | – | – | – | – | – | – |
| Cc1c(C#N)c2nnn(-c3cccc(Cl)c3)c(=O)n2c1-c1ccccc1 | > 100 µM | > 100 µM | 2.35 µM | 4.03 µM | 14.9 µM | > 100 | 8.59 µM | > 100 | > 100 | > 100 | – | – | – | – | – | – | – | – |
| Nc1nc(Sc2ccc([N+](=O)[O-])c3nonc23)c2[nH]cnc2n1 | 25.1 µM | 10.4 µM | 3.11 µM | 2.41 µM | 15.3 µM | 8.72 | 2.44 µM | 22.3 | 2.87 | 9.14 | – | – | – | – | – | – | – | – |
| CC(=O)N[C@@H](Cc1ccc(O)cn1)C(=O)NCc1ccc(Cl)cc1 | > 100 µM | > 100 µM | > 100 µM | > 100 µM | > 100 µM | > 100 | > 100 µM | > 100 | > 100 | > 100 | – | – | – | – | – | – | – | – |
| Nc1nc(Cl)c2ncn(CCCC(c3ccccc3)P(=O)(O)O)c2n1 (configuration not stated) | > 100 µM | > 100 µM | > 100 µM | > 100 µM | > 100 µM | > 100 | > 100 µM | > 100 | > 100 | > 100 | – | – | – | – | – | – | – | – |

Source: PubChem BioAssay (NCI)
